Assay [1] addresses KRAS-PI3Kα interaction (KRAS-Q25A binding to avi-tagged full length PI3Kα) (Homo sapiens (Human), UniProt P42336). Briefly: Disrupting KRAS-PI3Kα interaction by SPR inhibition assay. As to conditions: KRAS-Q25A at 20 μM, 25° C. How it is done: SPR binding experiments were collected on a Biacore 8K Instrument (Cytiva). Neutravidin (Pierce) was amine coupled to the carboxymethylated dextran surface of a CM5 sensor chip (Cytiva) using standard amine coupling chemistry. The CM5 chip surface was first activated with 0.1 M N-hydroxy succinimide and 0.4 M N-ethyl-N′-(3-dimethyl aminopropyl) carbodiimide at a flow rate of 20 μL/min using 20 mM HEPES pH 7.4, 150 mM NaCl as the running buffer. Next, neutravidin was diluted to 20 μg/mL in 10 mM sodium acetate (pH 4.5) and injected on all flow cells until a density of approximately 10,000 response units (RU) was immobilized. Activated amine groups were quenched with an injection of 1 M ethanolamine (pH 8.0). 300-500 RU of avi-tagged full length PI3Kα was captured on all flow cells in 20 mM HEPES pH 7.4, 150 mM NaCl, 5 mM MgCl2, 1 mM TCEP, 0.05% tween 20, 5% DMSO buffer. KRAS-Q25A at 20 μM was mixed with 8 concentrations of compound (50 nM-100 μM) and injected over the full-length PI3Kα at 30 μL/min and 25° C. Steady-state levels of KRAS binding were recorded and fit with a 4-parameter inhibition model to determine the IC50 values.

Assay [2] concerns the target Cys242 in human PIK3CA (157-299) (Homo sapiens (Human), UniProt P42336). Briefly: Covalent modification assay using MALDI-TOF MS. It counts as biochemical. The note with it: 4 h reaction time point; 3.33 μM protein target, 1:7.5 protein to compound ratio (compounds 1-852). The gist of the method:
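Covalent adduct formation was read by linear-mode MALDI-TOF with sinapinic acid matrix, reported as modified-protein peak height divided by total protein peak heights. Reactions held PIK3CA (157-299) at 1 or 3.33 μM in HEPES/NaCl/MgCl2 buffer, pH 7.3, sampled after 15 min to 4 h at room temperature.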

In assay [3] the test system is pAKT in BT474 cells. Briefly: Cell-based pAKT HTRF assay in BT474 cells. As to conditions: BT474 cells, 4 hr incubation, Compounds 10-999, read-out: pAKT inhibition IC50 in BT474 cells. The gist of the method:
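The HTRF signal (excitation 320 nm, emission 615 nm) came from d2/Eu Cryptate antibodies added to lysates and incubated 4–24 h at room temperature. Those lysates were taken from cells treated for 4 hr with compound, top concentration 3 μM, in 0.25% DMSO.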
(In TR-FRET formats the signal depends on donor and acceptor labels being close together.)

SMILES strings stand for the structures. Like-named read-outs stand apart in the source and are kept apart here.

Sequence of Cys242 in human PIK3CA (157-299) (P42336 157-299): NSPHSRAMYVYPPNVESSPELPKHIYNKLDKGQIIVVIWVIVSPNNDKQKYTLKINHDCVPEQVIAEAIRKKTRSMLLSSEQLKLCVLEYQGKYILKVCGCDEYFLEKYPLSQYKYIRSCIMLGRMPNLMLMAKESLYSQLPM
Sequence of KRAS-PI3Kα interaction (KRAS-Q25A binding to avi-tagged full length PI3Kα) (P42336 whole entry, looked up, stated change not applied): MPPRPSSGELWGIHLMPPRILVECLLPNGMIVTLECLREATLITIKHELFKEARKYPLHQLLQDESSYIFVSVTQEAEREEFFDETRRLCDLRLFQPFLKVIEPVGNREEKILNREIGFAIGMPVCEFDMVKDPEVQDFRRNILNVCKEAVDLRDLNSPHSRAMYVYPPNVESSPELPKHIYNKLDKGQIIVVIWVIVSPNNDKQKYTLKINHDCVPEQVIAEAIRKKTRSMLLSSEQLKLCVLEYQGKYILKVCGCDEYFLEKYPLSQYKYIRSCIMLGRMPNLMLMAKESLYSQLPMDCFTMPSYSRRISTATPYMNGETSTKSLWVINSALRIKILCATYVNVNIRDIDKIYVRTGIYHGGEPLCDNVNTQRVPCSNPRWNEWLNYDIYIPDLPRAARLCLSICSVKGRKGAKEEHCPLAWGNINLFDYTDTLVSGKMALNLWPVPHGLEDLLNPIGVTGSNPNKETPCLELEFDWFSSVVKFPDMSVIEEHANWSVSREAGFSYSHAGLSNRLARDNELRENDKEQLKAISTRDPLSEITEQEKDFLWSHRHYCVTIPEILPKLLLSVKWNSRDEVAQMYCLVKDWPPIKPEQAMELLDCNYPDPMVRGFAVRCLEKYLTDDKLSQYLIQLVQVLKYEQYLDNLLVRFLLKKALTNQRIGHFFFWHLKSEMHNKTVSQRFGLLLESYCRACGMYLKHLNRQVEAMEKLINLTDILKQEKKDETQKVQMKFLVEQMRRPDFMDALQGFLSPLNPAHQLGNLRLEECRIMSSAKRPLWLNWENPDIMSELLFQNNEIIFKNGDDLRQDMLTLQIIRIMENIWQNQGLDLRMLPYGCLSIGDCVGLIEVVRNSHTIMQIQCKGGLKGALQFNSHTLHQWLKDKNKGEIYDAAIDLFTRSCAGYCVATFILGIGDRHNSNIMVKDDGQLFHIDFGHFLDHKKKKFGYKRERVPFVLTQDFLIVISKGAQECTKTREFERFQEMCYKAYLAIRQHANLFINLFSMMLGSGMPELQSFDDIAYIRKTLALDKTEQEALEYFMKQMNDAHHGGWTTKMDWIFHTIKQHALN
Sequence of KRAS-PI3Kα interaction (KRAS-Q25A binding to avi-tagged full length PI3Kα) (P27986 whole entry partner, looked up): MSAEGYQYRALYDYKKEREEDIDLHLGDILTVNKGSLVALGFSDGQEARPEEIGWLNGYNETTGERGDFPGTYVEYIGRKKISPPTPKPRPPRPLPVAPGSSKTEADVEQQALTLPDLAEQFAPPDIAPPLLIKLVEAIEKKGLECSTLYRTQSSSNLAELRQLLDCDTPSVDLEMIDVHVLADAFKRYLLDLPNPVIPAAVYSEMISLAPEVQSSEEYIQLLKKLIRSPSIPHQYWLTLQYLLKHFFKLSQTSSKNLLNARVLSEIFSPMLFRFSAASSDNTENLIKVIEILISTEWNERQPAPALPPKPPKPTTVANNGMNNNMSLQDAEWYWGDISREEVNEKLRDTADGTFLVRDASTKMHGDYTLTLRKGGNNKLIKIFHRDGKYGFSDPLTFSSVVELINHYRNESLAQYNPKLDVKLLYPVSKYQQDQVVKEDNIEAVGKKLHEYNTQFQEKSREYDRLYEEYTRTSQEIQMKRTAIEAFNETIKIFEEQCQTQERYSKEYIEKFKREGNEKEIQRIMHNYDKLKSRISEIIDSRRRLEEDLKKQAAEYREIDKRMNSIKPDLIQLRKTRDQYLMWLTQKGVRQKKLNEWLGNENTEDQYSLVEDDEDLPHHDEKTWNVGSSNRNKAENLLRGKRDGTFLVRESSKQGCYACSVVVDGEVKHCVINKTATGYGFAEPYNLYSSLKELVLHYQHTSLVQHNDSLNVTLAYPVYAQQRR

In assay [1], `C=CC(=O)n1cnc(-c2nc(-c3ccc4c(c3)CCNC4)c3ccsc3c2-c2ccc(F)cc2OCCOC)c1` [compound 35] registered a concentration for half-maximal inhibition (IC50) of 5 to 25 µM. The “% of modification” value in assay [2] was “D (percent of modification <25%)”. For `COCCOc1cc(F)ccc1-c1c(-c2c[nH]cn2)nc(-c2ccc3c(c2)CCNC3)c2ccsc12` [compound 34], the concentration for half-maximal inhibition (IC50) in assay [1] was in the range of 5 to 25 µM.

In assay [1], `COCCOc1cc(F)ccc1-c1c(-c2ccc3cc[nH]c3c2)nc(-c2ccc3c(c2)CCNC3)c2ccsc12` [compound 45] registered an IC50 of 5 to 25 µM. Take `C=CC(=O)NC1CC(n2cc(-c3nc(-c4ccc5c(c4)CCNC5)c4ccsc4c3-c3ccc(F)cc3OCCOC)cn2)C1` (centres unmarked) [compound 60]: the IC50 is 5 to 25 µM in assay [1] and 0.1 to 1 µM in assay [3]. In addition, the “% of modification” value in assay [2] is listed as “A (percent of modification of PIK3CA protein ≥75%)”. For the molecule `COCCOc1cc(F)ccc1-c1c(-c2cccc(CNC(=O)C3CCCC3)c2)nc(-c2ccc3c(c2)CCNC3)c2ccsc12` [compound 27], the IC50 in assay [1] is < 5 µM. In the case of `COCCOc1ccccc1-c1c(-c2ccc(=O)n(C)c2)nc(-c2ccc3c(c2)CCNC3)c2c1CCC2` [compound 5], the IC50 in assay [1] was > 25 µM. As to `COCCOc1ccccc1-c1c(-c2cccc(C#N)c2)nc(-c2ccc3c(c2)CCNC3)c2c1CCC2` [compound 2], the concentration for half-maximal inhibition (IC50) in assay [1] was > 25 µM. On to `C=CC(=O)NC1CC(n2cc(-c3nc(-c4ccc5c(c4)CCNC5)c4ccsc4c3-c3ccc(F)cc3OCCOC)cn2)C1` (centres unmarked) [compound 55], for which the IC50 in assay [1] lay within 5 to 25 µM; in assay [3] it was 0.1 to 1 µM. Moreover, the “% of modification” value in assay [2] was “A (percent of modification of PIK3CA protein ≥75%)”. As to `COCCOc1cc(F)ccc1-c1c(-c2ccc(=O)n(C(C)C)c2)nc(-c2ccc3c(c2)CCNC3)c2ccsc12` [compound 26], the concentration for half-maximal inhibition (IC50) in assay [1] is < 5 µM. On the same count and under the same terms, to `COCCOc1cc(F)ccc1-c1c(-c2nc3ccc(C(C)C)cc3[nH]2)nc(-c2ccc3c(c2)CCNC3)c2ccsc12` [compound 20] belongs > 25 µM. On to `COCCOc1cc(F)ccc1-c1c(-c2cnn(C3CCN(C(=O)/C=C/CN(C)C)C3)c2)nc(-c2ccc3c(c2)CCNC3)c2ccsc12` (centres unmarked) [compound 56], for which, in assay [1], the IC50 is 5 to 25 µM. The “% of modification” value in assay [2] is on record as “B (50%<percent of modification <75%)”.

For the molecule `C=CC(=O)Nc1ccc2nc(-c3nc(-c4ccc5c(c4)CCNC5)c4ccsc4c3-c3ccc(F)cc3OCCOC)[nH]c2c1` [Compound 23, N-[2-[7-[4-fluoro-2-(2-methoxyethoxy)phenyl]-4-(1,2,3,4-tetrahydroisoquinolin-6-yl)thieno[3,2-c]pyridin-6-yl]-3H-benzimidazol-5-yl]prop-2-enamide], the IC50 in assay [1] is > 25 µM; in assay [3] (Homo sapiens, BT-474), 1 to 3 µM. Besides, the “% of modification” value in assay [2] is on record as “A (percent of modification of PIK3CA protein ≥75%)”. For `COCCOc1ccccc1-c1c(-c2ccccc2)nc(-c2ccc3c(c2)CCNC3)c2c1CCC2` [compound 3], the concentration for half-maximal inhibition (IC50) in assay [1] was > 25 µM. Take `C=CC(=O)NCCn1cc(-c2nc(-c3ccc4c(c3)CCNC4)c3ccsc3c2-c2ccc(F)cc2OCCOC)cn1` [compound 22]: the IC50 in assay [1] was in the range of 5 to 25 µM. Moreover, the “% of modification” value in assay [2] was “B (50%<percent of modification <75%)”.

As to `C=CC(=O)Nc1cccc(-c2nc(-c3ccc4c(c3)CCC(O)C4)c3ccsc3c2-c2ccc(F)cc2OCCOC)c1` (centres unmarked) [compound 57], the concentration for half-maximal inhibition (IC50) in assay [1] was > 25 µM. In addition, the “% of modification” value in assay [2] is “B (50%<percent of modification <75%)”. With `C=CC(=O)Nc1cccc(-c2nc(-c3cnn(C)c3)c3ccsc3c2-c2ccc(F)cc2OCCOC)c1` [compound 52], the IC50 in assay [1] is 5 to 25 µM; in assay [3], 0.1 to 1 µM. Also, in assay [2], the “% of modification” value is “A (percent of modification of PIK3CA protein ≥75%)”. As to `C=CC(=O)N1CC[C@H](n2cc(-c3nc(-c4ccc5c(c4)CNC(=O)C5)c4ccsc4c3-c3ccc(F)cc3OCCOC)cn2)C1` [compound 54], the results for the IC50 in assay [1] and in assay [3] were 5 to 25 µM and < 0.1 µM, respectively. Further, the “% of modification” value in assay [2] was “A (percent of modification of PIK3CA protein ≥75%)”.

On to `COCCOc1cc(F)ccc1-c1c(-c2cnn(CCNC(=O)C(C)C)c2)nc(-c2ccc3c(c2)CCNC3)c2ccsc12` [compound 21], for which the half-maximal inhibitory concentration (IC50) in assay [1] is 5 to 25 µM. The same measure, in the same setting: to `COCCOc1cc(F)ccc1-c1c(-c2nc(CO)cs2)nc(-c2ccc3c(c2)CCNC3)c2ccsc12` [compound 39] belongs 5 to 25 µM. In the case of `C=CC(=O)N1CC[C@H](n2cc(-c3nc(-c4ccc5c(c4)CCNC5)c4ccsc4c3-c3ccc(F)cc3OCCOC)c(C)n2)C1` [compound 59], the IC50 in assay [1] was < 5 µM; in assay [3] it was < 0.1 µM. In assay [2], the “% of modification” value is on record as “A (percent of modification of PIK3CA protein ≥75%)”. The molecule `COCCOc1ccccc1-c1c(-c2ccccc2)nc(-c2ccc3c(c2)CCNC3)c2ccsc12` [Compound 4, 7-[2-(2-methoxyethoxy)phenyl]-6-phenyl-4-(1,2,3,4-tetrahydroisoquinolin-6-yl)thieno[3,2-c]pyridine] showed a half-maximal inhibitory concentration (IC50) in assay [1] of 5 to 25 µM. Regarding `C=CC(=O)NCc1csc(-c2nc(-c3ccc4c(c3)CCNC4)c3ccsc3c2-c2ccc(F)cc2OCCOC)n1` [compound 38], in assay [1], the IC50 lay in the range of 5 to 25 µM. Also, the “% of modification” value in assay [2] is recorded as “B (50%<percent of modification <75%)”.

For `COCCOc1cc(F)ccc1-c1c(-c2cnn(CC(=O)NC(C)(C)C)c2)nc(-c2ccc3c(c2)CCNC3)c2ccsc12` [compound 24], the IC50 in assay [1] was < 5 µM. Same read-out and setting: the same measure for `COCCOc1cc(F)ccc1-c1c(-c2cnn(CC(=O)N3CCCC3)c2)nc(-c2ccc3c(c2)CCNC3)c2ccsc12` [compound 25]: 5 to 25 µM. Regarding `COCCOc1cc(F)ccc1-c1c(-c2ccc3c(c2)CCN(C)C3)nc(-c2ccc3c(c2)CCNC3)c2ccsc12` [compound 229], the half-maximal inhibitory concentration (IC50) in assay [1] is < 5 µM; in assay [3] it was > 3 µM.

As for `C=CC(=O)N1CCC(n2cc(-c3nc(-c4ccc5c(c4)CCNC5)c4ccsc4c3-c3ccc(F)cc3OCCOC)cn2)C1` (centres unmarked) [compound 28], the concentration for half-maximal inhibition (IC50) is 5 to 25 µM in assay [1] and < 0.1 µM in assay [3]. Moreover, the “% of modification” value in assay [2] was “A (percent of modification of PIK3CA protein ≥75%)”. For the molecule `C=CC(=O)N1CCC(n2cc(-c3nc(-c4cnn(C)c4)c4ccsc4c3-c3ccc(F)cc3OCCOC)cn2)CC1` [compound 49], the values for the IC50 in assay [1] and in assay [3] were > 25 µM and 0.1 to 1 µM, respectively. The “% of modification” value in assay [2] is “A (percent of modification of PIK3CA protein ≥75%)”.

As to `C=CC(=O)N1CCC(n2cc(-c3nc(-c4ccc5c(c4)CNC(=O)C5)c4ccsc4c3-c3ccc(F)cc3OCCOC)cn2)CC1` [compound 50], the half-maximal inhibitory concentration (IC50) in assay [1] was 5 to 25 µM; in assay [3], < 0.1 µM. Besides, in assay [2], the “% of modification” value was “A (percent of modification of PIK3CA protein ≥75%)”. For `C=CC(=O)N1CC[C@H](n2cc(-c3nc(-c4cnn(C)c4)c4ccsc4c3-c3ccc(F)cc3OCCOC)cn2)C1` [compound 53], in that order: 5 to 25 µM, 0.1 to 1 µM and “A (percent of modification of PIK3CA protein ≥75%)”. Turning to `COCCOc1cc(F)ccc1-c1c(-c2cnn(CCC(=O)NC(C)(C)C)c2)nc(-c2ccc3c(c2)CCNC3=O)c2ccsc12` [compound 37], in assay [1], the concentration for half-maximal inhibition (IC50) lay within 5 to 25 µM.

The IC50 is the concentration needed to halve the response being measured.

The record behind these values is patent US20250230138A1, “COMPOUNDS HAVING A T-STRUCTURE FORMED BY AT LEAST FOUR CYCLES FOR USE IN THE TREATMENT OF CANCER AND OTHER INDICATIONS” (TheRas, Inc., priority 2022, published 2025).
